According to the NIST ThermoML archive (doi:10.1021/je060271a):

Conditions: 343.15 K, Liquid, Vibrating tube method

CCCCCCCC(=O)OCC(COC(=O)CCCCCCC)(COC(=O)CCCCCCC)COC(=O)CCCCCCC [pentaerythritol tetraoctanoate]
Conditions	mass density [kg/m3]
665.9 kPa	926.5
687.8 kPa	926.6
706.6 kPa	926.4
730 kPa	926.5
755.6 kPa	926.6
778.5 kPa	926.5
802.8 kPa	926.6
832.2 kPa	926.4
862.6 kPa	926.6
881.1 kPa	926.6
902.3 kPa	926.7
920.9 kPa	926.6
940.4 kPa	926.6
964.7 kPa	926.7
985.7 kPa	926.6
1011.4 kPa	926.8
1034.9 kPa	926.7
1063.7 kPa	926.8
1088.9 kPa	926.8
1119.9 kPa	926.8
1147.2 kPa	926.8
1182.1 kPa	926.7
1218.2 kPa	926.8
1249.3 kPa	926.9
1282.5 kPa	926.8
1323.6 kPa	927.1
1359.7 kPa	927
1406.5 kPa	926.9
1447.6 kPa	927
1490.5 kPa	927
1543.8 kPa	927.1
1590.8 kPa	927.1
1650.5 kPa	927.1
1702.4 kPa	927.2
1763.5 kPa	927.2
1794.1 kPa	927.3
1881.2 kPa	927.4
1905.6 kPa	927.4
1913.3 kPa	927.3
1919.7 kPa	927.4
1926.3 kPa	927.3
1934.1 kPa	927.4
1941 kPa	927.5
1952.7 kPa	927.5
1970.2 kPa	927.3
2032.8 kPa	927.4
2121.2 kPa	927.7
2203.7 kPa	927.5
2331.4 kPa	927.7
2366.8 kPa	927.7
2379.6 kPa	927.9
2393.5 kPa	927.8
2403.9 kPa	927.9
2415.5 kPa	927.8
2424.6 kPa	927.8
2434.6 kPa	927.8
2446.8 kPa	927.8
2457.7 kPa	927.7
2468.6 kPa	927.9
2480.2 kPa	927.8
2493.9 kPa	927.9
2505.4 kPa	927.9
2519.4 kPa	927.9
2531.1 kPa	927.9
2543 kPa	927.9
2555.2 kPa	927.8
2569.2 kPa	927.9
2581.3 kPa	928
2593.5 kPa	927.9
2608.2 kPa	928
2620.9 kPa	927.9
2633.4 kPa	928.1
2646.4 kPa	927.9
2659 kPa	928
2674.6 kPa	928
2687.8 kPa	928
2700.8 kPa	928
2713.8 kPa	927.9
2729.6 kPa	928.1
2743.3 kPa	928
2756.7 kPa	927.9
2773 kPa	927.9
2786.3 kPa	928.1
2800.4 kPa	928
2814.8 kPa	928.1
2830 kPa	928.1
2846.9 kPa	928.2
2861.3 kPa	928.1
2875.3 kPa	928.1
2892.3 kPa	928.1
2907 kPa	928.1
2921.6 kPa	928.2
2936.8 kPa	928.1
2955 kPa	928.2
2969.8 kPa	928.1
2988.2 kPa	928.2
3003.6 kPa	928.1
3019.4 kPa	928.3
3035.5 kPa	928.4
3053.7 kPa	928.2
3070.2 kPa	928.3
3085.9 kPa	928.2
3102.6 kPa	928.4
3121.8 kPa	928.3
3138.3 kPa	928.4
3154.9 kPa	928.4
3175.2 kPa	928.3
3191.8 kPa	928.3
3209 kPa	928.3
3229.6 kPa	928.4
3247 kPa	928.4
3264.6 kPa	928.4
3285.8 kPa	928.4
3303.6 kPa	928.5
3321.5 kPa	928.5
3343 kPa	928.5
3361.5 kPa	928.6
3379.9 kPa	928.5
3398.8 kPa	928.5
3421.3 kPa	928.5
3440 kPa	928.4
3463.2 kPa	928.4
3482.8 kPa	928.5
3502.4 kPa	928.4
3522.3 kPa	928.7
3542.4 kPa	928.6
3566.7 kPa	928.7
3583.3 kPa	928.6
3608.1 kPa	928.7
3632.7 kPa	928.7
3653.7 kPa	928.6
3674.8 kPa	928.8
3695.9 kPa	928.7
3721.9 kPa	928.7
3743.4 kPa	928.8
3765.8 kPa	928.7
3792.8 kPa	928.8
3815.3 kPa	928.8
3838 kPa	928.8
3861 kPa	928.9
3888.6 kPa	929
3911.4 kPa	929
3935 kPa	928.8
3959.2 kPa	928.9
3987.5 kPa	929
4012.2 kPa	929
4037.5 kPa	928.9
4064.5 kPa	929
